Measured values taken from patent US20060062747A1, “Use of sweetener acids for the microbiological stabilization of foodstuffs, cosmetic products, consumer goods and pharmaceutical productions” (Nutrinova Nutrition Specialties & Food Ingredients GmbH, priority 2002, published 2006).

Experiments:
testers = assay: Pairwise comparison test for identical acid taste
Source text: Pairwise comparison test with the question: Which sample is the more acid: (forced choice, n=13)
Pairwise comparison test with the question: Which sample is the more acid? (forced choice, n=15)

[1] = Sensory testing of sweetener acids in foods and drinks; settings: in vivo
Source text: Sweetener acids are the acids of known salts of high-intensity sweeteners such as acesulfame-K (=potassium salt of acesulfamic acid), sodium cyclamate or sodium saccharin. Sweetener acids which can be used are, for example, saccharin acid, cyclamic acid, glycyrrhicic acid and acesulfamic acid and also mixtures of two or more of these acids. Inventively preferred sweetener acids are acesulfamic acid, cyclamic acid and saccharin acid, and also mixtures of two or all three sweetener acids. On account of their low pKa of 1.5 to 2.5, the sweetener acids have never previously been considered as […]. […] The acid profile is balanced.
At the same time, the sweetener acids have, on a molar basis, a sweetening power equivalent to the corresponding sweetener salt. In addition to the described acid taste and sweet taste, no significant off-taste and aftertaste occur.

[2] = pH of the test solutions and drinks

Compound | citric acid concentration of identical acid taste (testers; Example 1, vs 203 mg/l acesulfamic acid, citric acid + 250 mg/l acesulfame-K, n=13) [mg/L] | acetic acid concentration of identical acid taste (testers; Example 4, vs 203 mg/l acesulfamic acid, acetic acid + 250 mg/l acesulfame-K, n=14) [mg/L] | time-intensity profile of the acid taste [1] | pH ([2]; Example 1, identical acid taste solutions (Table 3)) | pH ([2]; Example 4, identical acid taste solutions (Table 9)) | citric acid concentration of identical acid taste (testers; Example 3, vs 200 mg/l saccharin acid, citric acid + 225 mg/l saccharin sodium, n=15) [mg/L] | pH ([2]; Example 3, identical acid taste solutions (Table 7))
CC1=CC(=O)NS(=O)(=O)O1 [Acesulfamic acid] | 137 | 190 | comparable to that of malic acid | 3.07 | 3.07 |  | 
O=C1NS(=O)(=O)c2ccccc21 [Saccharin acid, o-benzosulfimide] |  |  |  |  |  | 100 | 3.05
